# Test results reported in ChEMBL document CHEMBL3808390, “Quinazolinones-Phenylquinoxaline hybrids with unsaturation/saturation linkers as novel anti-proliferative agents” (2016).
# Legend:
# Assay type in all cases: functional
# HeLa = assay: Antiproliferative activity against human HeLa cells assessed as growth inhibition after 48 hrs by SRB assay
# MDA-MB-231 = assay: Antiproliferative activity against human MDA-MB-231 cells assessed as growth inhibition after 48 hrs by SRB assay; settings: MDA-MB-231, 48 h
# [1] = Antiproliferative activity against human MiaPaCa cells assessed as growth inhibition after 48 hrs by SRB assay; settings: MIA PaCa-2, 48 h
# [2] = Antiproliferative activity against human IMR32 cells assessed as growth inhibition after 48 hrs by SRB assay; settings: IMR-32, 48 h
GI50 (HeLa; read-out: GI50) [µM],GI50 (HeLa; read-out: pGI50 (converted)) [µM],GI50 (MDA-MB-231; read-out: GI50) [µM],GI50 (MDA-MB-231; read-out: pGI50 (converted)) [µM],SMILES,GI50 ([1]; read-out: GI50) [µM],GI50 ([2]; read-out: GI50) [µM],GI50 ([2]; read-out: pGI50 (converted)) [µM],GI50 ([1]; read-out: pGI50 (converted)) [µM]
16.1,16.1,1.7,1.7,O=c1c2ccccc2nc(-c2ccc(F)cc2)n1C/C=C/c1ccc(-c2cnc3ccccc3n2)cc1,< 0.01,65,65,
2.5,2.5,< 0.01,,COc1cc(OC)c(-c2nc3ccccc3c(=O)n2C/C=C/c2ccc(-c3cnc4ccccc4n3)cc2)c(OC)c1,2.2,0.77,0.771,2.2
0.12,0.12,1.25,1.25,COc1cccc(-c2nc3ccccc3c(=O)n2C/C=C/c2ccc(-c3cnc4ccccc4n3)cc2)c1,2,0.32,0.321,2
17.7,17.7,1.8,1.8,O=c1c2ccccc2nc(-c2ccc(C(F)(F)F)cc2)n1C/C=C/c1ccc(-c2cnc3ccccc3n2)cc1,10,5.3,5.31,10
31.6,31.6,< 0.01,,COc1ccc(-c2nc3ccccc3c(=O)n2C/C=C/c2ccc(-c3cnc4ccccc4n3)cc2)c(OC)c1,13.6,6.3,6.31,13.6
0.038,0.038,1.36,1.36,COc1ccc(OC)c(-c2nc3ccccc3c(=O)n2C/C=C/c2ccc(-c3cnc4ccccc4n3)cc2)c1,1.8,0.28,0.282,1.8
9.2,9.2,1.24,1.24,Cc1ccc(-c2nc3ccccc3c(=O)n2C/C=C/c2ccc(-c3cnc4ccccc4n3)cc2)cc1,11.4,2.2,2.2,11.4
0.032,0.0321,0.62,0.621,Cc1nc2ccccc2c(=O)n1CCCc1ccc(-c2cnc3ccccc3n2)cc1,1.2,0.22,0.22,1.2
0.9,0.902,0.14,0.14,O=c1c2ccccc2nc(-c2ccc([N+](=O)[O-])cc2)n1C/C=C/c1ccc(-c2cnc3ccccc3n2)cc1,6.1,< 0.01,,6.11
5.1,5.11,6.4,6.41,O=c1c2ccccc2nc(-c2ccccc2)n1C/C=C/c1ccc(-c2cnc3ccccc3n2)cc1,2.8,1.01,1.01,2.81
0.073,0.0731,0.085,0.0851,COc1cccc2c1C(=O)c1c(O)c3c(c(O)c1C2=O)C[C@@](O)(C(=O)CO)C[C@@H]3O[C@H]1C[C@H](N)[C@H](O)[C@H](C)O1 [DOXORUBICIN],0.097,0.023,0.023,0.097
0.025,0.025,0.091,0.0912,CC(=O)O[C@H]1C(=O)[C@@]2(C)[C@H]([C@H](OC(=O)c3ccccc3)[C@]3(O)C[C@H](OC(=O)[C@H](O)[C@@H](NC(=O)c4ccccc4)c4ccccc4)C(C)=C1C3(C)C)[C@]1(OC(C)=O)CO[C@@H]1C[C@@H]2O [PACLITAXEL],0.056,0.075,0.0752,0.0561
> 100,,> 100,,CCOc1ccc(-c2nc3ccccc3c(=O)n2C/C=C/c2ccc(-c3cnc4ccccc4n3)cc2)cc1,2.2,0.47,0.471,2.2
1.2,1.2,0.64,0.641,COc1ccc(-c2nc3ccccc3c(=O)n2C/C=C/c2ccc(-c3cnc4ccccc4n3)cc2)cc1,2.1,2.8,2.81,2.1
69.5,69.5,0.57,0.57,O=c1c2ccccc2nc(-c2ccc(Cl)cc2)n1C/C=C/c1ccc(-c2cnc3ccccc3n2)cc1,6.4,< 0.01,,6.41
> 100,,0.4,0.401,O=c1c2ccccc2nc(-c2ccc(Cl)cc2Cl)n1C/C=C/c1ccc(-c2cnc3ccccc3n2)cc1,4.4,2.6,2.6,4.41
0.9,0.902,< 0.01,,COc1ccc(-c2nc3ccccc3c(=O)n2C/C=C/c2ccc(-c3cnc4ccccc4n3)cc2)c(F)c1,28.6,1.2,1.2,28.6
